Measurements reported in PubChem BioAssay AID330 (DTP/NCI, 2004).
“And” between values parts separate entries of the source, which are not always exact repeats. Equal entries are not always repeated. Inconclusive results and toxic doses are left out. How the source made its calls: active means survival T/C of 150% or more; inactive means T/C below 125% in these data.

Tested on: P388 leukemia ip, CD2F1 mice, survival T/C
Test: NCI In Vivo Anticancer Drug Screen. Data for tumor model P388 Leukemia (intraperitoneal) in CD2F1 (CDF1) mice
Conditions: endpoint: median survival time, higher = longer survival
Procedure, shortened: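 Mice carrying the transplanted tumor received test compound or vehicle. Survival was recorded in each group, and the value is the treated-group measurement divided by that of the vehicle-treated control group.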

[1] = dose: 60.0 mg/kg/injection, schedule: Q01DX005 (ip), vehicle: saline with Tween-80
[2] = dose: 120.0 mg/kg/injection, schedule: Q01DX005 (ip), vehicle: saline with Tween-80
[3] = dose: 240.0 mg/kg/injection, schedule: Q01DX005 (ip), vehicle: saline with Tween-80
[4] = dose: 100.0 mg/kg/injection, schedule: Q04DX002 (ip), vehicle: saline with Tween-80
[5] = dose: 200.0 mg/kg/injection, schedule: Q04DX002 (ip), vehicle: saline with Tween-80
[6] = dose: 50.0 mg/kg/injection, schedule: Q01DX005 (ip), vehicle: saline with Tween-80
[7] = dose: 100.0 mg/kg/injection, schedule: Q01DX005 (ip), vehicle: saline with Tween-80
[8] = dose: 200.0 mg/kg/injection, schedule: Q01DX005 (ip), vehicle: saline with Tween-80
[9] = dose: 50.0 mg/kg/injection, schedule: Q01DX009 (ip), vehicle: saline with Tween-80
[10] = dose: 100.0 mg/kg/injection, schedule: Q01DX009 (ip), vehicle: saline with Tween-80
[11] = dose: 6.25 mg/kg/injection, schedule: Q01DX009 (ip), vehicle: water
[12] = dose: 12.5 mg/kg/injection, schedule: Q01DX009 (ip), vehicle: water

Measured: T/C

COc1ccc(C[N+]2=Cc3cc(OC)c(OC)cc3CC2)cc1
inactive: dose: 12.5 mg/kg/injection, schedule: Q01DX001 (ip), vehicle: saline + alcohol 100 % of control | dose: 25.0 mg/kg/injection, schedule: Q01DX001 (ip), vehicle: saline + alcohol 98 % of control | dose: 50.0 mg/kg/injection, schedule: Q01DX001 (ip), vehicle: saline + alcohol 98 % of control

O=C(/C=C/c1c(-c2ccccc2)[nH]c2ccccc12)c1ccc([N+](=O)[O-])cc1
inactive: [1] 97 % of control | [2] 90 % of control | [3] 87 % of control

CC(/C=N/Nc1ccccc1)=N\N=c1/scc(-c2ccc(Br)cc2)n1-c1ccc(Br)cc1
inactive: [4] 86 % of control | [5] 86 % of control

CC(NC(=O)C1CC(O)CN1C(=O)CN)C(=O)O (stereo unspecified)
inactive: dose: 50.0 mg/kg/injection, schedule: Q01DX005 (ip), vehicle: Klucel (hydroxypropylcellulose) (HPC) 96 % of control | dose: 100.0 mg/kg/injection, schedule: Q01DX005 (ip), vehicle: Klucel (hydroxypropylcellulose) (HPC) 110 % of control | dose: 200.0 mg/kg/injection, schedule: Q01DX005 (ip), vehicle: Klucel (hydroxypropylcellulose) (HPC) 94 % of control

O=C(CCSCCCl)Nc1c(C(=O)O)cc([N+](=O)[O-])cc1[N+](=O)[O-]
inactive: dose: 3.13 mg/kg/injection, schedule: Q04DX003 (ip), vehicle: DMSO 94 % of control | dose: 6.25 mg/kg/injection, schedule: Q04DX003 (ip), vehicle: DMSO 100 % of control | dose: 12.5 mg/kg/injection, schedule: Q04DX003 (ip), vehicle: DMSO 102 % of control | dose: 25.0 mg/kg/injection, schedule: Q04DX003 (ip), vehicle: DMSO 111 % of control | dose: 50.0 mg/kg/injection, schedule: Q04DX003 (ip), vehicle: DMSO 102 % of control and 109 % of control | dose: 100.0 mg/kg/injection, schedule: Q04DX003 (ip), vehicle: DMSO 116 % of control

O=C1ON=C(c2ccccc2)/C1=C\C=C\c1ccccc1
inactive: [1] 95 % of control | [2] 98 % of control | [3] 103 % of control

O=C(COc1nccc2nc(-c3ccccc3)cn12)c1ccccc1
inactive: dose: 1.56 mg/kg/injection, schedule: Q01DX009 (ip), vehicle: Klucel (hydroxypropylcellulose) (HPC) 96 % of control | dose: 3.12 mg/kg/injection, schedule: Q01DX009 (ip), vehicle: Klucel (hydroxypropylcellulose) (HPC) 89 % of control | dose: 6.25 mg/kg/injection, schedule: Q01DX009 (ip), vehicle: Klucel (hydroxypropylcellulose) (HPC) 89 % of control and 92 % of control | dose: 12.5 mg/kg/injection, schedule: Q01DX001 (ip), vehicle: Klucel (hydroxypropylcellulose) (HPC) 95 % of control | dose: 25.0 mg/kg/injection, schedule: Q01DX001 (ip), vehicle: Klucel (hydroxypropylcellulose) (HPC) 95 % of control | dose: 50.0 mg/kg/injection, schedule: Q01DX001 (ip), vehicle: Klucel (hydroxypropylcellulose) (HPC) 96 % of control

O=C(N/N=C/c1ccccc1O)c1cc2ccccc2cc1O
inactive: dose: 7.5 mg/kg/injection, schedule: Q01DX005 (ip), vehicle: saline with Tween-80 92 % of control | dose: 15.0 mg/kg/injection, schedule: Q01DX005 (ip), vehicle: saline with Tween-80 88 % of control

CCCCCCN=C(N)N/N=C(\C)c1ccc2c(c1)Cc1cc(/C(C)=N/NC(N)=NCCCCCC)ccc1-2
inactive: dose: 6.25 mg/kg/injection, schedule: Q04DX002 (ip), vehicle: saline with Tween-80 98 % of control | dose: 12.5 mg/kg/injection, schedule: Q04DX002 (ip), vehicle: saline with Tween-80 107 % of control | dose: 25.0 mg/kg/injection, schedule: Q04DX002 (ip), vehicle: saline with Tween-80 109 % of control | dose: 50.0 mg/kg/injection, schedule: Q04DX002 (ip), vehicle: saline with Tween-80 116 % of control

O=C1OC(C2OC(=O)C(=O)C2C(=O)c2ccccc2)C(C(=O)c2ccccc2)C1=O (stereo unspecified)
inactive: [1] 111 % of control | [2] 108 % of control | [3] 108 % of control

CC1(C)OC2OC3COP(=O)(c4ccccc4)C3(CC#N)C2O1 (stereo unspecified)
inactive: [1] 94 % of control | [2] 99 % of control | [3] 98 % of control

C(=N\c1oc(-c2ccccc2)c(-c2ccccc2)c1-c1ccccc1)/c1ccccc1
inactive: [6] 88 % of control | [7] 88 % of control | [8] 95 % of control

CCOC(=O)C(F)C(Br)C(=O)OCC (stereo unspecified)
inactive: dose: 25.0 mg/kg/injection, schedule: Q01DX009 (ip), vehicle: saline with Tween-80 105 % of control and 120 % of control | [9] 117 % of control | [10] 123 % of control

Nc1ccc(S(=O)(=O)Nc2nc(-c3ccccc3)cc(-c3ccccc3O)n2)cc1
inactive: [1] 96 % of control | [2] 96 % of control

COCC1(C)CCCC2(C)C3=C(CCC(=O)C3)CCC12 (stereo unspecified)
inactive: dose: 100.0 mg/kg/injection, schedule: Q04DX003 (ip), vehicle: Klucel (hydroxypropylcellulose) (HPC) 99 % of control | dose: 200.0 mg/kg/injection, schedule: Q04DX003 (ip), vehicle: Klucel (hydroxypropylcellulose) (HPC) 101 % of control | dose: 400.0 mg/kg/injection, schedule: Q04DX003 (ip), vehicle: Klucel (hydroxypropylcellulose) (HPC) 96 % of control

C[n+]1c(C2(C)CCCO2)sc2ccccc21 (stereo unspecified)
inactive: dose: 60.0 mg/kg/injection, schedule: Q01DX005 (ip), vehicle: saline 103 % of control

CN1CCc2cc3c(cc2C(=O)Cc2ccc4c(c2C1)OCO4)OCO3
inactive: dose: 25.0 mg/kg/injection, schedule: Q04DX003 (ip), vehicle: saline with Tween-80 95 % of control | dose: 50.0 mg/kg/injection, schedule: Q04DX003 (ip), vehicle: saline with Tween-80 90 % of control | dose: 100.0 mg/kg/injection, schedule: Q04DX003 (ip), vehicle: saline with Tween-80 90 % of control

COc1ccc(OC)c(NC(=O)Oc2c(C)cc(Cl)cc2Br)c1
inactive: [9] 97 % of control | [10] 99 % of control | dose: 200.0 mg/kg/injection, schedule: Q01DX009 (ip), vehicle: saline with Tween-80 100 % of control

Cc1nccnc1NN=O
inactive: dose: 3.12 mg/kg/injection, schedule: Q01DX009 (ip), vehicle: water 101 % of control | [11] 104 % of control | [12] 111 % of control and 113 % of control | dose: 100.0 mg/kg/injection, schedule: Q01DX009 (ip), vehicle: water 87 % of control

Clc1nc(Cl)nc(Nc2ncccn2)n1
inactive: dose: 60.0 mg/kg/injection, schedule: Q01DX005 (ip), vehicle: Klucel (hydroxypropylcellulose) (HPC) 100 % of control | dose: 120.0 mg/kg/injection, schedule: Q01DX005 (ip), vehicle: Klucel (hydroxypropylcellulose) (HPC) 102 % of control

COC(=O)[C@]1(O)Cc2c(O)c3c(c(O)c2[C@@H](OC2CC(N)C(O)C(C)O2)C1)C(=O)c1c(OC)cccc1C3=O (stereo partly specified)
inactive: dose: 1.56 mg/kg/injection, schedule: Q01DX009 (ip), vehicle: water 110 % of control | dose: 3.13 mg/kg/injection, schedule: Q01DX009 (ip), vehicle: water 108 % of control | [11] 109 % of control and 114 % of control | [12] 116 % of control and 118 % of control | dose: 25.0 mg/kg/injection, schedule: Q01DX009 (ip), vehicle: water 116 % of control

COc1cc(OC)c(C2c3cc4c(cc3OC(C)(O)C2C)OCO4)c(OC)c1 (stereo unspecified)
inactive: [4] 94 % of control | [5] 89 % of control | dose: 400.0 mg/kg/injection, schedule: Q04DX002 (ip), vehicle: saline with Tween-80 102 % of control

[N-]=[N+]=Nc1ccnc2cc(C(F)(F)F)ccc12
inactive: [1] 103 % of control | [2] 100 % of control | [3] 96 % of control

CCC1(c2ccccc2)NN1C1CCCCC1 (stereo unspecified)
inactive: dose: 6.25 mg/kg/injection, schedule: Q01DX005 (ip), vehicle: saline with Tween-80 100 % of control | dose: 12.5 mg/kg/injection, schedule: Q01DX005 (ip), vehicle: saline with Tween-80 96 % of control | dose: 25.0 mg/kg/injection, schedule: Q01DX005 (ip), vehicle: saline with Tween-80 92 % of control | [6] 96 % of control | [7] 100 % of control | [8] 105 % of control

C[O][Sn]([CH3])([CH3])[O][Sn]([CH3])([CH3])[Cl]
inactive: dose: 6.25 mg/kg/injection, schedule: Q04DX003 (ip), vehicle: saline 103 % of control and 106 % of control | dose: 12.5 mg/kg/injection, schedule: Q04DX003 (ip), vehicle: saline 100 % of control and 101 % of control and 96 % of control | dose: 25.0 mg/kg/injection, schedule: Q04DX003 (ip), vehicle: saline 99 % of control and 100 % of control and 109 % of control | dose: 50.0 mg/kg/injection, schedule: Q04DX003 (ip), vehicle: saline 102 % of control and 120 % of control and 97 % of control

C=CC[n+]1ccc2ccccc2c1
inactive: dose: 25.0 mg/kg/injection, schedule: Q01DX009 (ip), vehicle: saline sonified 90 % of control | dose: 50.0 mg/kg/injection, schedule: Q01DX009 (ip), vehicle: saline sonified 90 % of control | dose: 100.0 mg/kg/injection, schedule: Q01DX009 (ip), vehicle: saline sonified 95 % of control
